Calls of active or inactive are those of the source. No cut-off for these calls is given here.
What was measured:
[1] = target: 5'-AMP-activated protein kinase catalytic subunit alpha-1 (Homo sapiens) (UniProt Q13131); test: Inhibition of AMPKa1 ATP Loop labeling site in human Huh-7 cells at 1 uM by KiNativ Profiling analysis relative to control; assay type: cell-based
[2] = target: Insulin receptor (Homo sapiens) (UniProt P06213); test: Inhibition of INSR (unknown origin) at 10 uM by Ambit Kinomescan binding assay relative to control
Sequence of Insulin receptor (Homo sapiens) (P06213 28-758 limits assumed): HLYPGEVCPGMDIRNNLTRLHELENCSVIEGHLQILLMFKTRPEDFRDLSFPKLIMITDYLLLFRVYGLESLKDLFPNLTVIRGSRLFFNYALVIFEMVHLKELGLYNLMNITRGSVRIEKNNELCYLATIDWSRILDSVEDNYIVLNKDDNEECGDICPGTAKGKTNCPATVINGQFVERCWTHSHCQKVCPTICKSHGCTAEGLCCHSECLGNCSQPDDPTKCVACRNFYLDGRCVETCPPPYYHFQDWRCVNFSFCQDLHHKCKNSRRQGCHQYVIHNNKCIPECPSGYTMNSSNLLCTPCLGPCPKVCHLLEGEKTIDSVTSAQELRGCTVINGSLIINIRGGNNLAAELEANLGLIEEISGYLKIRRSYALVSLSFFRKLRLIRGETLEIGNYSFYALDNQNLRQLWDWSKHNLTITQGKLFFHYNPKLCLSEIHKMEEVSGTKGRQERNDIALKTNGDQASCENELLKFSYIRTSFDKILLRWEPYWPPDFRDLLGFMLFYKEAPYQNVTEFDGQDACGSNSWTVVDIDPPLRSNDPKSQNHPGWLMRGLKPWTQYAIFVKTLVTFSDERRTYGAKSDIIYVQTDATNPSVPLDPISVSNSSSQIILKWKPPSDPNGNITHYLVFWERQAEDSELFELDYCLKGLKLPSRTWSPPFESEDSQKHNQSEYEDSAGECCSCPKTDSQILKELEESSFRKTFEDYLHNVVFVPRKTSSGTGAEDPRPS
Sequence of Insulin receptor (Homo sapiens) (P06213 763-1382 limits assumed): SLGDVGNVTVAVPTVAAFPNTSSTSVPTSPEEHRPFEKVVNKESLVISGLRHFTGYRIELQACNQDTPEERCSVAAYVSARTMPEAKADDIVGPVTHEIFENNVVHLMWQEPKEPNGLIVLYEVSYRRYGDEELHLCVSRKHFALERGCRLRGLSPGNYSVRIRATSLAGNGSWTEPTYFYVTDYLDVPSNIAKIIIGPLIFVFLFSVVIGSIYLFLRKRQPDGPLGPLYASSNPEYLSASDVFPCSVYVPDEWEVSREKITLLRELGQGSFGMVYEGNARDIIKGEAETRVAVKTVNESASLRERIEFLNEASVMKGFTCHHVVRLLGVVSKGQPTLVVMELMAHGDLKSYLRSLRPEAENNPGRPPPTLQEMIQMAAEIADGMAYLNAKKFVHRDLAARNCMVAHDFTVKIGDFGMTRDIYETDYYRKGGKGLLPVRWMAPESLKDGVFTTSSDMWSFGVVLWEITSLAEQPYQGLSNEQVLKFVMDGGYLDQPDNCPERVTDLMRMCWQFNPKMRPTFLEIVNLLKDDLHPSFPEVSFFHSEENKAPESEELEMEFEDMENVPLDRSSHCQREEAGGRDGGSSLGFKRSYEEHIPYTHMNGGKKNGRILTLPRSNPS

[3] = target: Tyrosine-protein kinase Yes (Homo sapiens) (UniProt P07947); test: Inhibition of YES (unknown origin) at 10 uM by Ambit Kinomescan binding assay relative to control; values are per cent of control
Sequence of Tyrosine-protein kinase Yes (Homo sapiens) (P07947 2-543 limits assumed): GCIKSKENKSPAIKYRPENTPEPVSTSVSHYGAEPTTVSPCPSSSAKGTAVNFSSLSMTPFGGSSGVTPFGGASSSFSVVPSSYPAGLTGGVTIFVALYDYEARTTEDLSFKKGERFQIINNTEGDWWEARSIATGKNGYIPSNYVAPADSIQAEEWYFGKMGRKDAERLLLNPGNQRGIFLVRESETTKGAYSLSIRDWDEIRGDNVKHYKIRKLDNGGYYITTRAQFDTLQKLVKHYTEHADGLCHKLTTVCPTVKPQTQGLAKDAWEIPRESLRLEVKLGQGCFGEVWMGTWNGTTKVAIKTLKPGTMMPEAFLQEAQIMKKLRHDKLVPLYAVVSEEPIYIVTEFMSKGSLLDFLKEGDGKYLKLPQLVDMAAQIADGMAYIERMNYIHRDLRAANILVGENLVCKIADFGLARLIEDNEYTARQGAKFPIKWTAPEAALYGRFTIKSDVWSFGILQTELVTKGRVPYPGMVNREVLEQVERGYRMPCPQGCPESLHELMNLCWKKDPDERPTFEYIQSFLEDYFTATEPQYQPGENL

[4] = target: Phosphatidylinositol 4-phosphate 5-kinase type-1 alpha (Homo sapiens) (UniProt Q99755); test: Inhibition of PIP5K1A (unknown origin) at 10 uM by Ambit Kinomescan binding assay
Sequence of Phosphatidylinositol 4-phosphate 5-kinase type-1 alpha (Homo sapiens) (Q99755 whole entry): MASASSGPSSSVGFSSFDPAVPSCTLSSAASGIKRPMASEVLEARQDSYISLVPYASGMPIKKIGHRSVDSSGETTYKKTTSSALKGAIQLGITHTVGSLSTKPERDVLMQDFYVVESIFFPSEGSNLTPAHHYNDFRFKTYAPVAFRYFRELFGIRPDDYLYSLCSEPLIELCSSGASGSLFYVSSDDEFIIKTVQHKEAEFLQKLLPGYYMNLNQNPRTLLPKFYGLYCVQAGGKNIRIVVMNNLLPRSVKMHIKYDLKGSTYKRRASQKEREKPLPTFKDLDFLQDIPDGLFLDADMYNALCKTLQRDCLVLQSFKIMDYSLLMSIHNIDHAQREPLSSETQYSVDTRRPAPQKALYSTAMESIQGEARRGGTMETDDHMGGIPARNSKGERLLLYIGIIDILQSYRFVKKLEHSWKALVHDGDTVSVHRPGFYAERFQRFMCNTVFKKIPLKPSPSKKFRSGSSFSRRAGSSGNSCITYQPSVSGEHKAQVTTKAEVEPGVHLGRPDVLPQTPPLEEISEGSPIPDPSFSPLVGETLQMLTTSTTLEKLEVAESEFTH

[5] = target: T1, Mitogen-activated protein kinase kinase kinase 6 (Homo sapiens) (UniProt O95382); test: Inhibition of MAP3K6 Lys1 labeling site harbouring IAIKEIPERDSR in human A-375 cells at 0.05 uM by KiNativ Profiling analysis relative to control; assay type: cell-based
T1 sequence (whole entry): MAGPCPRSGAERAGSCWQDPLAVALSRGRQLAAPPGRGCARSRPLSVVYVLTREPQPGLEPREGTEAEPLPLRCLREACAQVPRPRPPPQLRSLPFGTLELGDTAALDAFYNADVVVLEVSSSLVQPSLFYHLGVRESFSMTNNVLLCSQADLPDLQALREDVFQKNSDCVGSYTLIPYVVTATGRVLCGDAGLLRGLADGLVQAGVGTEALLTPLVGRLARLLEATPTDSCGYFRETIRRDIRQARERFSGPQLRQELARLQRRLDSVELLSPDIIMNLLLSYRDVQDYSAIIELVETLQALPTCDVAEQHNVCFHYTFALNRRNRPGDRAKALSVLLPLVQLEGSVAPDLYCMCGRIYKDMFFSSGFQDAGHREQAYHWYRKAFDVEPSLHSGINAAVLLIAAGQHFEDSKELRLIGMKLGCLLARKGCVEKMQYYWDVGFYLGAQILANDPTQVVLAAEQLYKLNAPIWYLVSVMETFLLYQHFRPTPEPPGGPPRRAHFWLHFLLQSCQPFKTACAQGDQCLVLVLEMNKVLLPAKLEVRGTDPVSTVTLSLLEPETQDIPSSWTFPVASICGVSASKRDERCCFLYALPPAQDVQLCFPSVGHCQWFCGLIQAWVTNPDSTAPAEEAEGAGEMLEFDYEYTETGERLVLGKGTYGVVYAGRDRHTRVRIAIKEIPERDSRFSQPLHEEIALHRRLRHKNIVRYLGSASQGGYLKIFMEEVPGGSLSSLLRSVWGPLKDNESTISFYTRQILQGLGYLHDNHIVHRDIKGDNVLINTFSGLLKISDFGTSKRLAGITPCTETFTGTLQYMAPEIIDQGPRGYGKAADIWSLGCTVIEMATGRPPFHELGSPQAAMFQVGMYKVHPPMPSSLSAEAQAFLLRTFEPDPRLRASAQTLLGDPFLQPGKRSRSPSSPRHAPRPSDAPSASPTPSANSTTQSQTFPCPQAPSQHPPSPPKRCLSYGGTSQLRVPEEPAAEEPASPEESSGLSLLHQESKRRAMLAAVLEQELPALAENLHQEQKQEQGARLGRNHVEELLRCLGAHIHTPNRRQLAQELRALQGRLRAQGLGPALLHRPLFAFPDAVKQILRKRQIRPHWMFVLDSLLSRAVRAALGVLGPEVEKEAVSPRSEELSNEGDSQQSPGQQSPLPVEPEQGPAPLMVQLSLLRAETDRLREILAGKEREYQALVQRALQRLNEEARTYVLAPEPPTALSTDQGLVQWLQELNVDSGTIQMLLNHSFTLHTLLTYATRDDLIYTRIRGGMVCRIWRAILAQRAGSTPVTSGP

[6] = target: Tyrosine-protein kinase Lyn (Homo sapiens, UniProt P07948); test: Inhibition of LYN Lys1 labeling site in human A-375 cells at 0.05 uM by KiNativ Profiling analysis relative to control; assay type: cell-based
Sequence of Tyrosine-protein kinase Lyn (P07948 2-512 limits assumed): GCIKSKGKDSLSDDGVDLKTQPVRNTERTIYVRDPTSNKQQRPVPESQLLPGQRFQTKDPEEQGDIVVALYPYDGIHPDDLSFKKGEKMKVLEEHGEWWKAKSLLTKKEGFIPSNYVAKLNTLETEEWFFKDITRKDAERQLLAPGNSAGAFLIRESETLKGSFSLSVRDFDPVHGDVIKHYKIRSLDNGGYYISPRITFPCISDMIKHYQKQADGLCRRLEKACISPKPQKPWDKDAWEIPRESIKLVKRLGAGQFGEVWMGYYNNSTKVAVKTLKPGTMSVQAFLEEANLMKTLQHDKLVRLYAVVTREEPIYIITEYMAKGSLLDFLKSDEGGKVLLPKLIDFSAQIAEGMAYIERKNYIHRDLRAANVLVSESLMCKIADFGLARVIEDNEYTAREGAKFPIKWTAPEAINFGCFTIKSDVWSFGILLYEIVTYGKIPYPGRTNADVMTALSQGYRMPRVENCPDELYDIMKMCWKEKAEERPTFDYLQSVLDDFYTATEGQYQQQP

[7] = target: T2, Phosphatidylinositol 5-phosphate 4-kinase type-2 gamma (Homo sapiens) (UniProt Q8TBX8); test: Inhibition of PIP4K2C ATP labeling site harbouring VKELPTLK in human A-375 cells at 0.05 uM by KiNativ Profiling analysis relative to control; assay type: cell-based
T2 sequence (whole entry): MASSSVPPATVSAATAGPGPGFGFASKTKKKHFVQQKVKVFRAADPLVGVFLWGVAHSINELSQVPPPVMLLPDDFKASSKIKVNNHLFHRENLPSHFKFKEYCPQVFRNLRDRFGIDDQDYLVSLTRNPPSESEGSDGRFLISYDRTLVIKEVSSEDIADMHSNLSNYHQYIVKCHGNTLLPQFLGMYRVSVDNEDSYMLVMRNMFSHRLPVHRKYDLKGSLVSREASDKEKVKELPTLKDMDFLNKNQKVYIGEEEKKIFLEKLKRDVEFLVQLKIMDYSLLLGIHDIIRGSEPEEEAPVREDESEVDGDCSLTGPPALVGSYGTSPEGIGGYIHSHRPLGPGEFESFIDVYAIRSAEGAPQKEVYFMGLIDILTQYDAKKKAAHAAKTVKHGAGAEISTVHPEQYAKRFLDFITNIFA

[8] = target: Receptor tyrosine-protein kinase erbB-3 (Homo sapiens) (UniProt P21860); test: Inhibition of ERBB3 (unknown origin) at 1 uM by Ambit Kinomescan binding assay relative to control
Sequence of Receptor tyrosine-protein kinase erbB-3 (Homo sapiens) (P21860 whole entry): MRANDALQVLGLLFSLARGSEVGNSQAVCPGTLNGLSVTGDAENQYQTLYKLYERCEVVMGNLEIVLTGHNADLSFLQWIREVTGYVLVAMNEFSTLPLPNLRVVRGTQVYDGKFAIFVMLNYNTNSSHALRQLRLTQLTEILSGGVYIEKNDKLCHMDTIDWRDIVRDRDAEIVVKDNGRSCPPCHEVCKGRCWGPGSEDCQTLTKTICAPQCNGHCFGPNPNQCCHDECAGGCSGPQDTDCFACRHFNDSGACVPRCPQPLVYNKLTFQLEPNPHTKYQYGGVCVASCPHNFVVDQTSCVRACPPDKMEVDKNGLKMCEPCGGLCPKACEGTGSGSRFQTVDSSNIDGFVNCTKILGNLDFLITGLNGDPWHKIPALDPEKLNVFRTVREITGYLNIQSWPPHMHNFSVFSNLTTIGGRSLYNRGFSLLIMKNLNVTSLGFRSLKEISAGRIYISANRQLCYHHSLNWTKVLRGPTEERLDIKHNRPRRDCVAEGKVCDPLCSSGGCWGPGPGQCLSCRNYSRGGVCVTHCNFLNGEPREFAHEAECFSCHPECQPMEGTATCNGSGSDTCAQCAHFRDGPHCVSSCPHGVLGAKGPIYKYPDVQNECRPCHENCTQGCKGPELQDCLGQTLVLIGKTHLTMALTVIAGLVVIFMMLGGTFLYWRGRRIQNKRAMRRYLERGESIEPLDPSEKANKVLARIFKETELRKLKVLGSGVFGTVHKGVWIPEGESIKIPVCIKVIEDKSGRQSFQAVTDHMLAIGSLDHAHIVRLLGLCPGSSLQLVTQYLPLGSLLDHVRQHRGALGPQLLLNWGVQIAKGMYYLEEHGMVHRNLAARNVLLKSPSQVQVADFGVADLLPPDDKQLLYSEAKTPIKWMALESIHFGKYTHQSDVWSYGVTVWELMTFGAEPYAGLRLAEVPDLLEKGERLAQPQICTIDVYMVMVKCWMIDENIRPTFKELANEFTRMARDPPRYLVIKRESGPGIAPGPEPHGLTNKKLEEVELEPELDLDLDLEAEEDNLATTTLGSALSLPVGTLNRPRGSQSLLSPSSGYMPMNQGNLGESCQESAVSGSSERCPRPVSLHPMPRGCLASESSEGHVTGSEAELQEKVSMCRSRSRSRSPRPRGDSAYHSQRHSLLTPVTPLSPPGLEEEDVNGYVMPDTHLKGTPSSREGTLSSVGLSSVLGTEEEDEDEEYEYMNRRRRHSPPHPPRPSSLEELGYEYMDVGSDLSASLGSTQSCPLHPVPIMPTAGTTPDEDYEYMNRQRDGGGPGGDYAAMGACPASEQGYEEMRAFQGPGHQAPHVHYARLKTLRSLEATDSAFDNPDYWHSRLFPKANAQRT

Sequence of 5'-AMP-activated protein kinase catalytic subunit alpha-1 (Homo sapiens) (Q13131 whole entry, looked up): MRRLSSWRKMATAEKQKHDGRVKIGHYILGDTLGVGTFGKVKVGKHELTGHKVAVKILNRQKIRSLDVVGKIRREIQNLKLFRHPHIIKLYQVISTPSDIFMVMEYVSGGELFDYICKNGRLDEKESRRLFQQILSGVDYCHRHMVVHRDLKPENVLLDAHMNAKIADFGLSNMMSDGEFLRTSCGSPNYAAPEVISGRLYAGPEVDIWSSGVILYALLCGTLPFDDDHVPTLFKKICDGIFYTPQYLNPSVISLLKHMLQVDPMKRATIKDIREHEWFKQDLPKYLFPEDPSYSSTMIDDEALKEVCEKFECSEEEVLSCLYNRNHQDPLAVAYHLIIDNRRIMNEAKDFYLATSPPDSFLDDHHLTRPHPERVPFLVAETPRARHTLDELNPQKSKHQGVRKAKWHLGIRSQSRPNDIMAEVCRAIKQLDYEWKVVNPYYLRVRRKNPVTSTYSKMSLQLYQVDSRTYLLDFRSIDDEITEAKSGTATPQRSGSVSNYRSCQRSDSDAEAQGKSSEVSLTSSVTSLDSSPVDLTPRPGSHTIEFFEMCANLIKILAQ

For `CNc1cc(Oc2cc(C(=O)Nc3cc(N4CCN(C)CC4)cc(C(F)(F)F)c3)ccc2C)ncn1`, the inhibition [1] was -3.8%.
`CCN1CCN(Cc2ccc(NC(=O)c3ccc(C)c(Oc4ccnc5[nH]ccc45)c3)cc2C(F)(F)F)CC1` was tested, and the inhibition [2] was 30%, the residual activity [3] was 1.6% and the inhibition [4] was “inactive”. For the same compound, the inhibition [5] was -3.3% and the inhibition [6] was 71.9%.
With `CCN1CCN(Cc2ccc(NC(=O)c3ccc(C)c(/C=C/c4cnc5[nH]ccc5c4OC)c3)cc2C(F)(F)F)CC1` the inhibition [7] was -8.6% and the inhibition [8] was 100%.

— ChEMBL document CHEMBL5696442, “Discovery of type II inhibitors of TGFβ-activated kinase 1 (TAK1) and mitogen-activated protein kinase kinase kinase kinase 2 (MAP4K2)” (J Med Chem, 2015)
